Assay results reported in ChEMBL document CHEMBL3864191 (ACS Med Chem Lett, 2016).
pIC50, pKi: −log10 of the molar value. Active and inactive are the calls of the source. The calls are words filed in the database; no cut-off is given here.

What was measured:
[1] = Cytotoxicity against human DU145 cells assessed as reduction in cell viability after 72 hrs by MTT assay; type: functional, cell-based, DU-145; details: Homo sapiens, DU-145, 72 h
[2] = Cytotoxicity against mouse CT26 cells assessed as reduction in cell viability after 72 hrs by MTT assay; type: functional, cell-based; details: Mus musculus, CT26, 72 h
cells [3] = details: Homo sapiens, MCF7, 72 h
Description: Cytotoxicity against human MCF7 cells assessed as reduction in cell viability after 72 hrs by MTT assay

cells [4] = details: Homo sapiens, HCT-116, 72 h
Description: Cytotoxicity against human HCT116 cells assessed as reduction in cell viability after 72 hrs by MTT assay

NCI60 = experiment: Cytotoxicity against human NCI60 cells assessed as cell growth inhibition up to 10 uM after 48 hrs by SRB assay; type: functional, cell-based
[5] = Cytotoxicity against HEK293T cells assessed as reduction in cell viability at 0.33 to 100 uM after 72 hrs by MTT assay; type: toxicity, cell-based; details: human, hek-293t
[6] = Cytotoxicity against African green monkey Vero cells assessed as reduction in cell viability at 0.33 to 100 uM after 72 hrs by MTT assay; type: toxicity, cell-based; details: chlorocebus sabaeus
[7] = molecular target: Induced myeloid leukemia cell differentiation protein Mcl-1 (Homo sapiens, UniProt Q07820); experiment: Inhibition of FAM-Bid binding to human MCL1 expressed in Escherichia coli BL21 after 30 mins by fluorescence polarization assay
[8] = molecular target: Apoptosis regulator Bcl-2 (Homo sapiens, UniProt P10415); experiment: Inhibition of FAM-Bid binding to human BCL2 expressed in Escherichia coli BL21 after 30 mins by fluorescence polarization assay
[9] = Cytotoxicity against human leukemia cells assessed as cell growth inhibition after 48 hrs by SRB assay; type: functional
[10] = Cytotoxicity against human non-small cell lung cancer cells assessed as cell growth inhibition after 48 hrs by SRB assay; type: functional; details: Cancer cell lines
[11] = Cytotoxicity against human colon cancer cells assessed as cell growth inhibition after 48 hrs by SRB assay; type: functional; details: Cancer cell lines
[12] = Cytotoxicity against human CNS cancer cells assessed as cell growth inhibition after 48 hrs by SRB assay; type: functional; details: Cancer cell lines
[13] = Cytotoxicity against human melanoma cells assessed as cell growth inhibition after 48 hrs by SRB assay; type: functional
[14] = Cytotoxicity against human ovarian cancer cells assessed as cell growth inhibition after 48 hrs by SRB assay; type: functional; details: Cancer cell lines
[15] = Cytotoxicity against human renal cancer cells assessed as cell growth inhibition after 48 hrs by SRB assay; type: functional; details: Cancer cell lines
[16] = Cytotoxicity against human prostate cancer cells assessed as cell growth inhibition after 48 hrs by SRB assay; type: functional; details: Cancer cell lines
[17] = Cytotoxicity against human breast cancer cells assessed as cell growth inhibition after 48 hrs by SRB assay; type: functional; details: Cancer cell lines

Chain of Induced myeloid leukemia cell differentiation protein Mcl-1 (Q07820 whole entry): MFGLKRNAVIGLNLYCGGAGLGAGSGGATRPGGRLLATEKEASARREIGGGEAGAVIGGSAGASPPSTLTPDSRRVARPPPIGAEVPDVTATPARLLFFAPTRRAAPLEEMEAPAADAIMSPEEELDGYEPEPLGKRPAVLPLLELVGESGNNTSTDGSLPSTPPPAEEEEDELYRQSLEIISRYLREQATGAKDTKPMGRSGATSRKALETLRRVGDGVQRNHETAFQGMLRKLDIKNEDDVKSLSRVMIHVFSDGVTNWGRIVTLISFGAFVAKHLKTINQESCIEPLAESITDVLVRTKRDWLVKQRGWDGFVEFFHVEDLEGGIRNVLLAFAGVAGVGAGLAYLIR
Chain of Apoptosis regulator Bcl-2 (P10415 whole entry): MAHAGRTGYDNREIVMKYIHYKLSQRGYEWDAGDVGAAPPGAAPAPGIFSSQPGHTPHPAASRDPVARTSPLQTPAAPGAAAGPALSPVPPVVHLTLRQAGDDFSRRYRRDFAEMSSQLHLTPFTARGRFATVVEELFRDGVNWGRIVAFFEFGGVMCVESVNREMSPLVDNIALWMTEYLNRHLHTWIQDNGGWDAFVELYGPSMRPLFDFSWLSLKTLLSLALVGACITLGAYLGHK

pIC50 (cells [3])	pIC50 (cells [4])	SMILES	pIC50 [1]	pIC50 [2]	growth inhibition (GI) (NCI60)	Activity [5]	Activity [6]	also measured
5.05	4.88	COC(=O)CCCCCCN/C=C1\C(=O)C(O)=C(C(C)C)c2cc(C)c(-c3c(C)cc4c(c3O)/C(=C/NCCCCCCC(=O)OC)C(=O)C(O)=C4C(C)C)c(O)c21	4.94	5.25	Active	Non-Toxic	Non-Toxic	–
4.94	6.19	COC(=O)CCCCCN/C=C1\C(=O)C(O)=C(C(C)C)c2cc(C)c(-c3c(C)cc4c(c3O)/C(=C/NCCCCCC(=O)OC)C(=O)C(O)=C4C(C)C)c(O)c21	5.07	4.86	Active	Non-Toxic	Non-Toxic	pIC50 [7]: 5.99; pKi [7]: 6.71; pIC50 [8]: 6.08; pKi [8]: 6.46; GI50 [9]: 1.03 µM; GI50 [10]: 1.51 µM; GI50 [11]: 1.44 µM; GI50 [12]: 1.46 µM; GI50 [13]: 2.35 µM; GI50 [14]: 2.65 µM; GI50 [15]: 2.08 µM; GI50 [16]: 1.41 µM; GI50 [17]: 1.72 µM
4.70	4.49	Cc1cc2c(c(O)c1-c1c(C)cc3c(c1O)/C(=C/NCCCC(=O)O)C(=O)C(O)=C3C(C)C)/C(=C/NCCCC(=O)O)C(=O)C(O)=C2C(C)C	4.74	4.54	–	Non-Toxic	Non-Toxic	pIC50 [7]: 6.18; pKi [7]: 7.03; pIC50 [8]: 6.22; pKi [8]: 6.63
5.25	5.28	COC(=O)CCN/C=C1\C(=O)C(O)=C(C(C)C)c2cc(C)c(-c3c(C)cc4c(c3O)/C(=C/NCCC(=O)OC)C(=O)C(O)=C4C(C)C)c(O)c21	5.02	5.37	–	Non-Toxic	Non-Toxic	pIC50 [7]: 5.53; pKi [7]: 6.24; pIC50 [8]: 6.54; pKi [8]: 7.05
4.75	4.64	Cc1cc2c(c(O)c1-c1c(C)cc3c(c1O)/C(=C/NCCCCCC(=O)O)C(=O)C(O)=C3C(C)C)/C(=C/NCCCCCC(=O)O)C(=O)C(O)=C2C(C)C	4.56	5.34	–	Non-Toxic	Non-Toxic	–
4.80	4.65	Cc1cc2c(c(O)c1-c1c(C)cc3c(c1O)/C(=C/NCCCCC(=O)O)C(=O)C(O)=C3C(C)C)/C(=C/NCCCCC(=O)O)C(=O)C(O)=C2C(C)C	4.68	5.35	–	Non-Toxic	Non-Toxic	pIC50 [7]: 6.32; pKi [7]: 7.07; pIC50 [8]: 6.34; pKi [8]: 6.77
4.71	4.68	Cc1cc2c(c(O)c1-c1c(C)cc3c(c1O)/C(=C/NCCC(=O)O)C(=O)C(O)=C3C(C)C)/C(=C/NCCC(=O)O)C(=O)C(O)=C2C(C)C	4.67	4.17	–	Non-Toxic	Non-Toxic	–
4.84	4.57	Cc1cc2c(c(O)c1-c1c(C)cc3c(c1O)/C(=C/NCC(=O)O)C(=O)C(O)=C3C(C)C)/C(=C/NCC(=O)O)C(=O)C(O)=C2C(C)C	4.46	4.31	Active	Non-Toxic	Non-Toxic	pIC50 [7]: 6.28; pKi [7]: 6.92; pIC50 [8]: 6.24; pKi [8]: 6.65
4.75	4.37	Cc1cc2c(c(O)c1-c1c(C)cc3c(c1O)/C(=C/NCCCS(=O)(=O)O)C(=O)C(O)=C3C(C)C)/C(=C/NCCCS(=O)(=O)O)C(=O)C(O)=C2C(C)C	4.44	4.45	–	–	–	–

The next lines start with the compound.

SMILES	pIC50 (cells [3])	pIC50 (cells [4])	pIC50 [1]	pIC50 [2]	growth inhibition (GI) (NCI60)	Activity [5]	Activity [6]	also measured
COC(=O)[C@@H](N/C=C1\C(=O)C(O)=C(C(C)C)c2cc(C)c(-c3c(C)cc4c(c3O)/C(=C/N[C@H](C(=O)OC)C(C)C)C(=O)C(O)=C4C(C)C)c(O)c21)C(C)C	4.11	4.11	4.92	5.23	–	–	–	–
Cc1cc2c(c(O)c1-c1c(C)cc3c(c1O)/C(=C/NCc1ccco1)C(=O)C(O)=C3C(C)C)/C(=C/NCc1ccco1)C(=O)C(O)=C2C(C)C	< 4.00	4.37	4.81	< 4.00	Active	–	–	–
Cc1cc2c(c(O)c1-c1c(C)cc3c(c1O)/C(=C/NCCS(=O)(=O)O)C(=O)C(O)=C3C(C)C)/C(=C/NCCS(=O)(=O)O)C(=O)C(O)=C2C(C)C	4.80	4.31	4.54	5.50	–	–	–	–
Cc1cc2c(c(O)c1-c1c(C)cc3c(c1O)/C(=C/NC1CCCCC1)C(=O)C(O)=C3C(C)C)/C(=C/NC1CCCCC1)C(=O)C(O)=C2C(C)C	< 4.00	4.10	4.69	4.60	Active	–	–	–
Cc1cc2c(c(O)c1-c1c(C)cc3c(c1O)/C(=C/NC1CCC(C(C)(C)C)CC1)C(=O)C(O)=C3C(C)C)/C(=C/NC1CCC(C(C)(C)C)CC1)C(=O)C(O)=C2C(C)C (stereo unspecified)	< 4.00	< 4.00	< 4.00	4.66	–	–	–	–
COC(=O)CCCN/C=C1\C(=O)C(O)=C(C(C)C)c2cc(C)c(-c3c(C)cc4c(c3O)/C(=C/NCCCC(=O)OC)C(=O)C(O)=C4C(C)C)c(O)c21 (stereo in doubt; (+)-16)	–	–	–	–	–	–	–	pIC50 [7]: 5.90; pKi [7]: 6.62; pIC50 [8]: 6.34; pKi [8]: 6.78
COC(=O)CCCN/C=C1\C(=O)C(O)=C(C(C)C)c2cc(C)c(-c3c(C)cc4c(c3O)/C(=C/NCCCC(=O)OC)C(=O)C(O)=C4C(C)C)c(O)c21 (stereo in doubt; (-)-16)	–	–	–	–	–	–	–	pIC50 [7]: 6.03; pKi [7]: 6.75; pIC50 [8]: 6.43; pKi [8]: 6.88
Cc1cc2c(c(O)c1-c1c(C)cc3c(c1O)/C(=C/NCc1ccc4c(c1)OCO4)C(=O)C(O)=C3C(C)C)/C(=C/NCc1ccc3c(c1)OCO3)C(=O)C(O)=C2C(C)C	< 4.00	5.08	4.54	< 4.00	–	–	–	–
COC(=O)CCCN/C=C1\C(=O)C(O)=C(C(C)C)c2cc(C)c(-c3c(C)cc4c(c3O)/C(=C/NCCCC(=O)OC)C(=O)C(O)=C4C(C)C)c(O)c21 (stereo in doubt; 16)	–	–	–	–	Active	–	–	–
Cc1cc2c(c(O)c1-c1c(C)cc3c(c1O)/C(=C/NCc1ccccc1)C(=O)C(O)=C3C(C)C)/C(=C/NCc1ccccc1)C(=O)C(O)=C2C(C)C	< 4.00	4.08	4.66	< 4.00	Active	–	–	–
COC(=O)[C@H](CCSC)N/C=C1\C(=O)C(O)=C(C(C)C)c2cc(C)c(-c3c(C)cc4c(c3O)/C(=C/N[C@@H](CCSC)C(=O)OC)C(=O)C(O)=C4C(C)C)c(O)c21	< 4.00	6.28	4.75	< 4.00	–	–	–	–
COC(=O)c1ccccc1N/C=C1\C(=O)C(O)=C(C(C)C)c2cc(C)c(-c3c(C)cc4c(c3O)/C(=C/Nc3ccccc3C(=O)OC)C(=O)C(O)=C4C(C)C)c(O)c21	4.61	4.43	4.68	4.67	–	–	–	–
Cc1cc2c(c(O)c1-c1c(C)cc3c(c1O)/C(=C/N[C@H]1C[C@@H]4C[C@H]([C@@H]1C)C4(C)C)C(=O)C(O)=C3C(C)C)/C(=C/N[C@H]1C[C@@H]3C[C@H]([C@@H]1C)C3(C)C)C(=O)C(O)=C2C(C)C	< 4.00	< 4.00	< 4.00	< 4.00	–	–	–	–
COC(=O)CN/C=C1\C(=O)C(O)=C(C(C)C)c2cc(C)c(-c3c(C)cc4c(c3O)/C(=C/NCC(=O)OC)C(=O)C(O)=C4C(C)C)c(O)c21	–	–	–	–	Active	Non-Toxic	Non-Toxic	pIC50 [7]: 5.84; pKi [7]: 6.56; pIC50 [8]: 6.99; pKi [8]: 8.30; GI50 [9]: 1.88 µM; GI50 [10]: 1.65 µM; GI50 [11]: 1.63 µM; GI50 [12]: 1.63 µM; GI50 [13]: 2.84 µM; GI50 [14]: 1.74 µM; GI50 [15]: 2.19 µM; GI50 [16]: 1.92 µM; GI50 [17]: 2.44 µM
Cc1cc2c(c(O)c1-c1c(C)cc3c(c1O)/C(=C/NC(C)(C)C(C)(C)C)C(=O)C(O)=C3C(C)C)/C(=C/NC(C)(C)C(C)(C)C)C(=O)C(O)=C2C(C)C	< 4.00	< 4.00	< 4.00	5.27	Active	–	–	–
Cc1cc2c(c(O)c1-c1c(C)cc3c(c1O)/C(=C/NC14CC5CC(CC(C5)C1)C4)C(=O)C(O)=C3C(C)C)/C(=C/NC13CC4CC(CC(C4)C1)C3)C(=O)C(O)=C2C(C)C	< 4.00	< 4.00	< 4.00	< 4.00	–	–	–	–
Cc1cc2c(c(O)c1-c1c(C)cc3c(c1O)/C(=C/NC(C)(C)C)C(=O)C(O)=C3C(C)C)/C(=C/NC(C)(C)C)C(=O)C(O)=C2C(C)C	< 4.00	< 4.00	4.77	4.89	Active	–	–	–
Cc1cc2c(c(O)c1-c1c(C)cc3c(c1O)/C(=C/Nc1ccc(C(C)(C)C)cc1)C(=O)C(O)=C3C(C)C)/C(=C/Nc1ccc(C(C)(C)C)cc1)C(=O)C(O)=C2C(C)C	< 4.00	< 4.00	< 4.00	4.89	Active	–	–	–
